According to patent US8192962B2, “Processes for detecting toxic substances” (Daikin Industries, Ltd., priority 2001, dated 2012):

System: Metabolism protein genes
Assay: DNA chip mRNA expression in yeast, metabolism protein genes (Table 7)
Type: cell-based, Saccharomyces cerevisiae S288C
Experimental: Yeast (Saccharomyces cerevisiae S288C (α SUC2mal mel gap2 CUP1)) were incubated at 25° C. on YPD medium (yeast extract 1%, polypepton 2%, glucose 2%). One of toxic chemical substances was added to the cells at logarithmic growth phase, and the cells were further incubated for two hours. Cells were cultured without any chemical substance in the same condition, and were used as control. Concentrations of the chemical substances were defined to inhibit the growth of the yeast but not lead to death.
After completion of the incubation, the culture was centrifuged to collect the cells. To the cells, sodium acetate buffer (50 mM sodium acetate, 10 mM EDTA, 1% SDS) was added, and the mixture was shaken at 65° C. for five minutes, followed by returning to room temperature, and obtaining the supernatant, of which the procedures were repeated two times. To the supernatant, ½ amount of a solution of phenol/chloroform was added, and the mixture was centrifuged to give a supernatant, which was added with an equal amount of chloroform, and the mixture was centrifuged to give a supernatant. To the supernatant, an equal amount of isopropanol containing 0.3 M sodium acetate was added, and the mixture was allowed to stand at room temperature for 30 minutes, after which the mixture was centrifuged to give a sediment of the whole RNAs. Seventy % ethanol was added to the sediment, and the mixture was again centrifuged to give a sediment, which was then dried and dissolved in water. mRNA was isolated from the whole RNAs as followings. In view of the fact that a poly A chain is attached to the 3′ terminus of mRNA, a polynucleotide having a poly T structure which was immobilized on the surface of latex beads was used to trap the mRNA, and then the mRNA was washed and eluted with spine column (Oligotex-dT30<Super>mRNA Purification Kit, Takara). Reverse transcription of the mRNA was conducted with a reverse transcriptase (Super Script II Reverse Transcriptase; catalogue No. 18064-014, GibcoBRL) using fluorescence-labeled nucleotides to give cDNAs that were introduced with Cy3-dUTP or Cy5-dUTP during the reverse transcription.
The labeled cDNAs were dissolved in TE buffer (10mM Tris-HCl/1 mM EDTA, pH8.0), and the solution was dropped on the DNA chip containing the whole genes of yeast (DNA Chip Research Inc. Japan) so that the cDNAs were hybridized on the DNA chip at 65° C. for over 12 hours. The fluoresces intensity of the DNA chip was read with a scanner, and the ratio relative to the fluorescence intensity resulting from the absence of chemical substance was estimated as the following, which is shown in Tables 1 to 9: […]

Oc1cc(Cl)c(Cl)cc1Cl [(6), 2,4,5-trichlorophenol]
1.9: level of expressed mRNA in the presence/in the absence of chemical substance (yeast gene YLR304C) | The level of expressed mRNA in the presence of chemical substance/The level of expressed mRNA in the absence of chemical substance (yeast gene YLR348C) | The level of expressed mRNA in the presence of chemical substance/The level of expressed mRNA in the absence of chemical substance (yeast gene YMR189W) | The level of expressed mRNA in the presence of chemical substance/The level of expressed mRNA in the absence of chemical substance (yeast gene YOL153C)
1.1: The level of expressed mRNA in the presence of chemical substance/The level of expressed mRNA in the absence of chemical substance (yeast gene YLR300W) | The level of expressed mRNA in the presence of chemical substance/The level of expressed mRNA in the absence of chemical substance (yeast gene YNL322C) | The level of expressed mRNA in the presence of chemical substance/The level of expressed mRNA in the absence of chemical substance (yeast gene YNL332W) | level of expressed mRNA in the presence/in the absence of chemical substance (yeast gene YOR002W) | level of expressed mRNA in the presence/in the absence of chemical substance (yeast gene YPR113W)
0.7: level of expressed mRNA in the presence/in the absence of chemical substance (yeast gene YOL116W) | level of expressed mRNA in the presence/in the absence of chemical substance (yeast gene YOR348C)
3.1: The level of expressed mRNA in the presence of chemical substance/The level of expressed mRNA in the absence of chemical substance (yeast gene YLR142W)
0.5: level of expressed mRNA in the presence/in the absence of chemical substance (yeast gene YKL148C) | level of expressed mRNA in the presence/in the absence of chemical substance (yeast gene YLR372W) | level of expressed mRNA in the presence/in the absence of chemical substance (yeast gene YNL025C)
1.0: The level of expressed mRNA in the presence of chemical substance/The level of expressed mRNA in the absence of chemical substance (yeast gene YKL213C) | The level of expressed mRNA in the presence of chemical substance/The level of expressed mRNA in the absence of chemical substance (yeast gene YNL106C) | level of expressed mRNA in the presence/in the absence of chemical substance (yeast gene YOR103C) | level of expressed mRNA in the presence/in the absence of chemical substance (yeast gene YOR128C)
1.7: The level of expressed mRNA in the presence of chemical substance/The level of expressed mRNA in the absence of chemical substance (yeast gene YMR008C) | The level of expressed mRNA in the presence of chemical substance/The level of expressed mRNA in the absence of chemical substance (yeast gene YNL012W) | level of expressed mRNA in the presence/in the absence of chemical substance (yeast gene YOL086C) | The level of expressed mRNA in the presence of chemical substance/The level of expressed mRNA in the absence of chemical substance (yeast gene YOL165C) | The level of expressed mRNA in the presence of chemical substance/The level of expressed mRNA in the absence of chemical substance (yeast gene YOR336W)
1.5: level of expressed mRNA in the presence/in the absence of chemical substance (yeast gene YKL157W) | level of expressed mRNA in the presence/in the absence of chemical substance (yeast gene YLR044C) | level of expressed mRNA in the presence/in the absence of chemical substance (yeast gene YLR089C) | level of expressed mRNA in the presence/in the absence of chemical substance (yeast gene YLR354C) | The level of expressed mRNA in the presence of chemical substance/The level of expressed mRNA in the absence of chemical substance (yeast gene YOL126C) | The level of expressed mRNA in the presence of chemical substance/The level of expressed mRNA in the absence of chemical substance (yeast gene YPL017C)
1.8: The level of expressed mRNA in the presence of chemical substance/The level of expressed mRNA in the absence of chemical substance (yeast gene YML054C) | level of expressed mRNA in the presence/in the absence of chemical substance (yeast gene YMR083W) | The level of expressed mRNA in the presence of chemical substance/The level of expressed mRNA in the absence of chemical substance (yeast gene YNL231C) | The level of expressed mRNA in the presence of chemical substance/The level of expressed mRNA in the absence of chemical substance (yeast gene YNL331C) | level of expressed mRNA in the presence/in the absence of chemical substance (yeast gene YPR165W)
2.2: The level of expressed mRNA in the presence of chemical substance/The level of expressed mRNA in the absence of chemical substance (yeast gene YKL091C) | The level of expressed mRNA in the presence of chemical substance/The level of expressed mRNA in the absence of chemical substance (yeast gene YML070W) | The level of expressed mRNA in the presence of chemical substance/The level of expressed mRNA in the absence of chemical substance (yeast gene YNL045W)
1.3: level of expressed mRNA in the presence/in the absence of chemical substance (yeast gene YKL060C) | level of expressed mRNA in the presence/in the absence of chemical substance (yeast gene YMR015C) | The level of expressed mRNA in the presence of chemical substance/The level of expressed mRNA in the absence of chemical substance (yeast gene YNR019W) | level of expressed mRNA in the presence/in the absence of chemical substance (yeast gene YPL135W)
0.9: The level of expressed mRNA in the presence of chemical substance/The level of expressed mRNA in the absence of chemical substance (yeast gene YKL104C) | level of expressed mRNA in the presence/in the absence of chemical substance (yeast gene YKR034W) | level of expressed mRNA in the presence/in the absence of chemical substance (yeast gene YLR006C) | level of expressed mRNA in the presence/in the absence of chemical substance (yeast gene YLR058C) | level of expressed mRNA in the presence/in the absence of chemical substance (yeast gene YLR081W) | level of expressed mRNA in the presence/in the absence of chemical substance (yeast gene YLR284C) | The level of expressed mRNA in the presence of chemical substance/The level of expressed mRNA in the absence of chemical substance (yeast gene YLR299W) | level of expressed mRNA in the presence/in the absence of chemical substance (yeast gene YOL108C) | The level of expressed mRNA in the presence of chemical substance/The level of expressed mRNA in the absence of chemical substance (yeast gene YOR099W) | level of expressed mRNA in the presence/in the absence of chemical substance (yeast gene YOR176W) | level of expressed mRNA in the presence/in the absence of chemical substance (yeast gene YOR251C) | The level of expressed mRNA in the presence of chemical substance/The level of expressed mRNA in the absence of chemical substance (yeast gene YOR347C)
1.2: The level of expressed mRNA in the presence of chemical substance/The level of expressed mRNA in the absence of chemical substance (yeast gene YKL035W) | level of expressed mRNA in the presence/in the absence of chemical substance (yeast gene YLR056W) | The level of expressed mRNA in the presence of chemical substance/The level of expressed mRNA in the absence of chemical substance (yeast gene YLR180W) | The level of expressed mRNA in the presence of chemical substance/The level of expressed mRNA in the absence of chemical substance (yeast gene YLR273C) | The level of expressed mRNA in the presence of chemical substance/The level of expressed mRNA in the absence of chemical substance (yeast gene YLR307W) | level of expressed mRNA in the presence/in the absence of chemical substance (yeast gene YMR205C) | level of expressed mRNA in the presence/in the absence of chemical substance (yeast gene YOL156W) | level of expressed mRNA in the presence/in the absence of chemical substance (yeast gene YPL028W) | level of expressed mRNA in the presence/in the absence of chemical substance (yeast gene YPR183W)
1.6: The level of expressed mRNA in the presence of chemical substance/The level of expressed mRNA in the absence of chemical substance (yeast gene YKL152C) | The level of expressed mRNA in the presence of chemical substance/The level of expressed mRNA in the absence of chemical substance (yeast gene YMR020W) | The level of expressed mRNA in the presence of chemical substance/The level of expressed mRNA in the absence of chemical substance (yeast gene YNR033W) | level of expressed mRNA in the presence/in the absence of chemical substance (yeast gene YOR108W) | The level of expressed mRNA in the presence of chemical substance/The level of expressed mRNA in the absence of chemical substance (yeast gene YOR130C) | level of expressed mRNA in the presence/in the absence of chemical substance (yeast gene YOR142W)
3.6: The level of expressed mRNA in the presence of chemical substance/The level of expressed mRNA in the absence of chemical substance (yeast gene YKL218C)
0.6: level of expressed mRNA in the presence/in the absence of chemical substance (yeast gene YMR011W) | level of expressed mRNA in the presence/in the absence of chemical substance (yeast gene YMR261C) | level of expressed mRNA in the presence/in the absence of chemical substance (yeast gene YNL192W) | level of expressed mRNA in the presence/in the absence of chemical substance (yeast gene YOR085W) | level of expressed mRNA in the presence/in the absence of chemical substance (yeast gene YPL057C) | level of expressed mRNA in the presence/in the absence of chemical substance (yeast gene YPL148C)
1.4: The level of expressed mRNA in the presence of chemical substance/The level of expressed mRNA in the absence of chemical substance (yeast gene YLL058W) | The level of expressed mRNA in the presence of chemical substance/The level of expressed mRNA in the absence of chemical substance (yeast gene YNL169C)
4.2: The level of expressed mRNA in the presence of chemical substance/The level of expressed mRNA in the absence of chemical substance (yeast gene YMR271C)
3.5: The level of expressed mRNA in the presence of chemical substance/The level of expressed mRNA in the absence of chemical substance (yeast gene YOL143C)
2.7: level of expressed mRNA in the presence/in the absence of chemical substance (yeast gene YOR178C)
0.8: level of expressed mRNA in the presence/in the absence of chemical substance (yeast gene YML022W) | The level of expressed mRNA in the presence of chemical substance/The level of expressed mRNA in the absence of chemical substance (yeast gene YNL104C) | The level of expressed mRNA in the presence of chemical substance/The level of expressed mRNA in the absence of chemical substance (yeast gene YNR059W) | The level of expressed mRNA in the presence of chemical substance/The level of expressed mRNA in the absence of chemical substance (yeast gene YOL058W)
2.1: The level of expressed mRNA in the presence of chemical substance/The level of expressed mRNA in the absence of chemical substance (yeast gene YKL215C)
4.5: The level of expressed mRNA in the presence of chemical substance/The level of expressed mRNA in the absence of chemical substance (yeast gene YMR250W) | The level of expressed mRNA in the presence of chemical substance/The level of expressed mRNA in the absence of chemical substance (yeast gene YPR160W)
2.8: The level of expressed mRNA in the presence of chemical substance/The level of expressed mRNA in the absence of chemical substance (yeast gene YKR039W) | The level of expressed mRNA in the presence of chemical substance/The level of expressed mRNA in the absence of chemical substance (yeast gene YML100W) | The level of expressed mRNA in the presence of chemical substance/The level of expressed mRNA in the absence of chemical substance (yeast gene YMR105C) | The level of expressed mRNA in the presence of chemical substance/The level of expressed mRNA in the absence of chemical substance (yeast gene YNL037C)
2.6: The level of expressed mRNA in the presence of chemical substance/The level of expressed mRNA in the absence of chemical substance (yeast gene YML110C) | The level of expressed mRNA in the presence of chemical substance/The level of expressed mRNA in the absence of chemical substance (yeast gene YMR272C) | The level of expressed mRNA in the presence of chemical substance/The level of expressed mRNA in the absence of chemical substance (yeast gene YPR167C)
0.4: The level of expressed mRNA in the presence of chemical substance/The level of expressed mRNA in the absence of chemical substance (yeast gene YMR296C) | level of expressed mRNA in the presence/in the absence of chemical substance (yeast gene YMR323W)
